Literature values as cited in patent US20100221326A1, “PHARMACEUTICAL COMPOSITIONS FOR ORAL USE FOR TREATING PATIENTS AFFECTED BY OBESITY” (MADER S.R.L., priority 2007, published 2010).

Conditions: raw material

degradation of the active principle (25° C., 65% RH, after 7 days' storage): 15%
degradation (40° C., RH 75%): greater than 40%
SMILES: CCCCCCCCCCC[C@@H](C[C@@H]1OC(=O)[C@H]1CCCCCC)OC(=O)[C@H](CC(C)C)NC=O [Orlistat]
